Data published in publication PMC3616001, “A Novel ^99mTc-Labeled Molecular Probe for Tumor Angiogenesis Imaging in Hepatoma Xenografts Model: A Pilot Study” (PLoS ONE, 2013).
Bridges are numbered along the chain shown (N, C = ends). Where no end group is shown, it is not given here. [ ]: non-standard residue; d: D form.

Assays:
[1] = type: in vitro ADME
Experimental: For the quality control of labeling, a double-phase paper chromatography on Xinhua no. 1 filter paper was performed to measure labeling efficiency and radiochemical purity, with acetone and ethanol: ammonia: water (2∶1∶5) as mobile phase. A sample of 100 µL ^99mTc-RRL at room temperature was used to observe the in vitro stability. And the in vitro stability was also determined by incubating 100 µL ^99mTc-RRL with 900 µL of normal saline at room temperature and 900 µL of freshly collected serum at 37°C, respectively. The three aliquots were then analyzed at 0, 1, 2, 4 and 6 h by paper chromatography.

[2] = tested on: HepG2 xenografts; test: Planar gamma imaging of tumor xenografts; type: in vivo, BALB/c nu/nu mice
Experimental: 12 BALB/c nu/nu mice with HepG2 xenografts were divided into 4 groups of 3 mice each (experimental, blocking, control and micro-PET group). The tumors were about 1 cm diameter for planar gamma or micro-PET imaging.
In experimental group, 7.4 MBq ^99mTc-RRL (100 µl, diluted with phosphate buffer, pH 7.4), which were purified and separated by Sephadex G25 gel-filtration column, were then injected into each mouse via lateral tail vein. In blocking group, 500 µg unlabeled RRL was injected 30 minutes before injection of ^99mTc-RRL. In control group, each mouse was only administered with 7.4 MBq Na^99mTcO4. All injections were successful with no leakage.
A whole-body planar imaging was performed at 1, 2, 4 and 6 h after injection in the Department of Nuclear Medicine, Peking University First Hospital, using SPECT (SPR SPECT; GE Healthcare, Inc.) equipped with a low-energy, high-resolution, parallel-hole collimator. Planar images were acquired 200,000 counts with a zoom factor of 2.0, and were digitally stored in a 256×256 matrix size.

[3] = In vitro stability at room temperature, neat and in normal saline (radiochemical purity by paper chromatography); type: physicochemical; settings: analysed at 0, 1, 2, 4 and 6 h by paper chromatography, average of 3 sampling points
Experimental: For the quality control of labeling, a double-phase paper chromatography on Xinhua no. 1 filter paper was performed to measure labeling efficiency and radiochemical purity, with acetone and ethanol: ammonia: water (2∶1∶5) as mobile phase.
A sample of 100 µL ^99mTc-RRL at room temperature was used to observe the in vitro stability. And the in vitro stability was also determined by incubating 100 µL ^99mTc-RRL with 900 µL of normal saline at room temperature and 900 µL of freshly collected serum at 37°C, respectively. The three aliquots were then analyzed at 0, 1, 2, 4 and 6 h by paper chromatography.

[4] = tested on: mice bearing HepG2 xenografts; design: species or system BALB/c nu/nu mice; settings: mouse, in vivo
Description: BALB/c nu/nu mice (female, 18 ± 2 g, 3- to 4-wk-old; Department of Laboratory Animal Science, Peking University First Hospital) were used in this study. The mice were inoculated with 1×10^7 HepG2 cells in the right upper limbs, and the tumors were allowed to grow to about a 1 cm diameter for largest diameter which could be measured. The mice were maintained using a standard diet, bedding and environment, with free access to food and drinking water.
40 BALB/c nu/nu mice with HepG2 xenografts were randomly divided into 8 groups (6 experimental groups, 1 blocking group and 1 control group) of 5 mice each. The experimental groups were treated with ^99mTc-RRL directly, and the blocking group was treated with excessive unlabeled RRL (500 µg, dissolved in 50 µL, 0.5 M, pH = 7.4 phosphate buffer) from lateral tail vein 30 minutes before injection of the radiolabeled derivative. The control group was administered with Na^99mTcO4 only.
The radiolabeled compounds were purified and isolated from the Sephadex G25 gel-filtration column, 1,850 kBq of ^99mTc-RRL was injected into each mouse via the lateral tail vein. All injections were successful with no leakage. The animals of 6 experimental groups were sacrificed by cervical dislocation at 15 min, 30 min, 1, 2, 4 and 6 h after injection, respectively. At 6 h, the blocking and control group were also studied.
The mice were dissected and tissues of interest (blood, heart, liver, spleen, lung, kidney, stomach, small intestine, bladder, bone, skeletal muscle and tumor) were weighed, and their radioactivity was measured using a γ-well counter, which was equipped with a NaI(Tl) crystal detector and coupled to a high gain PMT for maximum efficiency of 80%, along with a standard solution of the injection. Radioactivity results were recorded as the percentage injected activity per gram (%ID/g) of tissue corrected for background and decay.

Radiochemical purity over 6 hours in fresh 37°C serum [1]: more than 93%
Radiochemical purity over 6 hours at room temperature (RT) ([3]; 100 µL sample at room temperature): more than 93%
Radiochemical purity over 6 hours in normal saline (NS) at RT ([3]; 100 µL with 900 µL normal saline at room temperature): more than 93%
Blood clearance: tracer cleared from blood [4]: more than 71.3%
Ratio of tumor-to-blood [4]: 1.95
Ratio of tumor-to-liver [4]: 1.98
Ratio of tumor-to-muscle [4]: exceeded 6.5
Tracer cleared from tumor [4]: less than 4.39%
Substance: G[dA]GGK[dS][dS]CGGRRLGGC-NH2 (disulfide 8-16 (inferred)) [^99mTc-RRL, cyclic (disulfide) RRL peptide radiolabeled with 99mTc by a one-step method]
Tumor visualisation in planar gamma imaging, blocking group ([2]; 500 µg unlabeled RRL injected 30 minutes before 7.4 MBq tracer, any time after injection): not shown clearly
Tumor visualisation in planar gamma imaging ([2]; experimental group, 7.4 MBq i.v., at 2–6 h after administration): imaged clearly
